Measurements: US8409618B2, “Odor-reducing quinone compounds” (Kimberly-Clark Worldwide, Inc., priority 2002, dated 2013)

Columns and labels:
[1] = Urine odor and secondary odor panel ranking, dye powders in urine, 8 millimolar (Example 7); parameters: species or system human; conditions: for Secondary Odor Ranking: scale 1 to 5, 5 extremely unpleasant, individual panelists' scores
Experimental: (§1) Qualitative odor reduction was also assessed against common odors, such as garlic and urine. Specifically, panelists assessed odorant-containing jars by carefully unscrewing, and then raising the lid of each jar in a controlled manner, such that the odor was not diluted by the ambient air. The jars were wrapped and coded to ensure that the sample identity was unknown.
The effectiveness of various dyes in reducing urine odor was compared. […] Human female urine was initially collected and pooled by a nurse on staff at Kimberly-Clark Corporation. The pooled urine was added to mason jars in 50-milliliter aliquots using an automated pipette aid. Powders of the aforementioned dyes (commercially available from Sigma-Aldrich Chemical Co., Inc. of St. Louis, Mo. and Noveon Hilton Davis, Inc. of Cincinnati, Ohio) were weighed and placed into the mason jars containing 50 milliliters of urine so that the final concentration of the dye powder was 8 millimolar (equivalent to 0.5 wt. %). The mason jars were placed in an incubator overnight at 37° C.
To aid in the assessment of the dyes, the mason jars were divided into two groups for a morning assessment, and the best of both groups were compared in an afternoon assessment (after a total of 24 hours). In addition to ranking the jars from least to most malodorous (on a scale from 1 to 7, with 7 being the most malodors), panelists were also asked to judge whether there were secondary (non-urine) odors present and, if so, the extent that the secondary odors were unpleasant (on a scale from 1 to 5, with 5 being extremely unpleasant).
In this assessment, panelists were given instructions to rank the least malodorous jar as “1” and the most malodorous jar as “10,” remaining free to rank the other jars between 2-9.

[2] = Urine odor panel ranking, dye-coated Poise pads without SN-AK (Example 8); parameters: species or system human; conditions: for urine odor reduction (panel), assessment within set: overnight 37° C.
Experimental: as §1
Specifically, Acid Green 25, Acid Green 41, Acid Blue 129, and D&C Green No. 5 were tested. Powders of the aforementioned dyes (commercially available from Sigma-Aldrich Chemical Co., Inc. of St. Louis, Mo. and Noveon Hilton Davis, Inc. of Cincinnati, Ohio) were dissolved in water so that the concentration of the dye was 8 millimolar (equivalent to 0.5 wt. %). Samples of tissue wrap were created by cutting 9″×6″ sheets from a roll of tissue (1 ply white cellulose wrap sheet having a basis weight of 16.6 grams per square meter) were weighed, oven-dried overnight at 90° C., and weighed again the next day to calculate the amount of residual water in each wrap. The wraps were then dipped into a respective dye solution and hung to dry overnight, after which they were weighed again. The treated wraps were then rinsed in deionized water to remove any unbound dye and hung again to dry overnight. After weighing the treated wraps, they were once again oven-dried overnight at 90° C. and weighed to determine the dry add-on percentages ([…]). The add-on percentage for each sample was approximately 1.6 wt. %.
Two different sets of Poise® pads (commercially available from Kimberly-Clark Corp.) were tested. The first set of dye-coated tissue wraps (without SN-AK) was inserted around the pledgette area of the Poise® pads. The Poise® pads were cut open and the tissue wrap surrounding the pledgette carefully removed and replaced with dye-coated tissue wrap. The second set of dye-coated tissue wraps (without SN-AK) used dye coatings on the top of the pad (rather than inside). These pads were constructed by spreading the solution over the top of each pad. To prevent the superabsorbent area of the pad from soaking up the solution, the pads were cut open prior to coating and a layer of plastic wrap was placed between the top layer of the pad and the superabsorbent core. A pad that was cut open, but coated only with water on top, was used as a control. All pads were dried at room temperature overnight before placing them in mason jars for testing. For control purposes, a Poise® pad was also tested that was cut open, but retained its original tissue wrap. In addition, Serenity® Night & Day™ incontinence pads, which are commercially available from SCA Incontinence Care of Eddystone, Pa. and said to employ OdaSorb Plus™ to reduce odor, were also used for comparison.
Fresh human female urine was then pooled, and 50-milliliter aliquots were applied to the pads using a pipette. The mason jars were placed in a 37° C. incubator overnight for assessment the next day. […] Panelists were again asked to rank any secondary odors for unpleasantness on a scale of 1-5.

[3] = First Grouping, morning assessment, 8 millimolar, 7 most malodorous
[4] = First Grouping, scale 1 to 7, 7 most malodorous
[5] = Second Grouping, morning assessment, 8 millimolar, higher = more malodorous
[6] = After 24 Hours, top performers of both groupings, 1 least, 10 most malodorous
[7] = 2nd set (top-sheet coating), After 30 Hours

1,2 naphthaquinone-2-sulfonic acid potassium salt
Urine Odor Ranking (number of panelists): ranking 2 [1, 3]: 1 number of panelists | Urine Odor Ranking (number of panelists): ranking 3 [1, 3]: 2 number of panelists | Urine Odor Ranking (number of panelists): ranking 4 [1, 3]: 1 number of panelists | Urine Odor Ranking (number of panelists): ranking 7 [1, 3]: 1 number of panelists | Average Urine Odor Ranking, Avg. Score [1, 4]: 3.8 | secondary (non-urine) odor (panel) ([1]; first grouping): an unpleasant secondary smell was found to be present | urine odor reduction (panel) ([1]; first grouping): effectively reduced urine odor

Nc1cc(S(=O)(=O)[O-])c(O)c2c1C(=O)c1c(O)c(S(=O)(=O)[O-])cc(N)c1C2=O.[Na+].[Na+] [Acid Blue 45]
Average Urine Odor Ranking, Avg. Score ([1]; Second Grouping): 3.4 | Urine Odor Ranking (number of panelists): ranking 2 [1, 5]: 1 number of panelists | Urine Odor Ranking (number of panelists): ranking 3 [1, 5]: 2 number of panelists | Urine Odor Ranking (number of panelists): ranking 4 [1, 5]: 1 number of panelists | Urine Odor Ranking (number of panelists): ranking 5 [1, 5]: 1 number of panelists

Cc1ccc(Nc2ccc(Nc3ccc(C)cc3S(=O)(=O)[O-])c3c2C(=O)c2c(O)ccc(O)c2C3=O)c(S(=O)(=O)[O-])c1.[Na+].[Na+] [Acid Green 41]
Urine Odor Ranking (number of panelists): ranking 1 [1, 6]: 1 number of panelists | Urine Odor Ranking (number of panelists): ranking 2 [1, 6]: 2 number of panelists | Urine Odor Ranking (number of panelists): ranking 3 [1, 6]: 1 number of panelists | Urine Odor Ranking (number of panelists): ranking 7 [1, 6]: 1 number of panelists | Urine Odor Ranking (number of panelists): ranking 1 [1, 3]: 1 number of panelists | Urine Odor Ranking (number of panelists): ranking 2 [1, 3]: 2 number of panelists | Urine Odor Ranking (number of panelists): ranking 3 [1, 3]: 1 number of panelists | Urine Odor Ranking (number of panelists): ranking 4 [1, 3]: 1 number of panelists | Secondary Odor Ranking ([1]; First Grouping): 1 | Average Urine Odor Ranking, Avg. Score [1, 4]: 2.4 | urine odor reduction (panel) ([1]; after 24 hours, top performers of both groupings): achieved the best odor reduction | Average Urine Odor Ranking, Avg. Score ([1]; after 24 hours, top performers, 1 least, 10 most malodorous): 3.0 | Average Urine Odor Ranking (with statistical corrections), Avg. Score ([1]; after 24 hours, top performers, ignoring statistical anomalies): 2.0 | urine odor reduction (panel) ([1]; first grouping): functioned effectively to reduce odor | Average Urine Odor Ranking, Avg. Score ([2]; 1st set (tissue-wrap coating), final pooled assessment): 4.50 | Urine Odor Ranking (number of panelists): ranking 2 [2, 7]: 2 number of panelists | Urine Odor Ranking (number of panelists): ranking 3 [2, 7]: 1 number of panelists | Urine Odor Ranking (number of panelists): ranking 4 [2, 7]: 1 number of panelists | Secondary Odor Ranking ([2]; 2nd set (top-sheet coating), After 30 Hours, scale of 1-5): 1 | Average Urine Odor Ranking, Avg. Score ([2]; 2nd set (top-sheet coating), final pooled assessment): 2.75 | urine odor reduction (panel), assessment within set ([2]; first set of pads (dye-coated tissue wrap around pledgette)): performed best for the first set of pads | urine odor reduction (panel), assessment within set ([2]; second set of pads (dye coating on top of pad)): performed best for the second set of pads | overall urine odor control performance (panel) ([2]; top-sheet coating, final pooled assessment): best performer overall, followed by Acid Green 41

CCN(Cc1cccc(S(=O)(=O)[O-])c1)c1ccc(C(=C2C=CC(=[N+](CC)Cc3cccc(S(=O)(=O)[O-])c3)C=C2)c2ccccc2S(=O)(=O)[O-])cc1.[Na+].[Na+] [FD&C Blue No. 1, reference compound]
Urine Odor Ranking (number of panelists): ranking 4 [1, 3]: 1 number of panelists | Urine Odor Ranking (number of panelists): ranking 5 [1, 3]: 4 number of panelists | Secondary Odor Ranking ([1]; First Grouping): 3 | Average Urine Odor Ranking, Avg. Score [1, 4]: 4.8
